Reference: PMC9186362, “Design and biological evaluation of substituted 5,7-dihydro-6H-indolo[2,3-c]quinolin-6-one as novel selective Haspin inhibitors” (Journal of Enzyme Inhibition and Medicinal Chemistry, 2022)

Assays:
U-2 OS cells = assay: Cell cycle analysis by flow cytometry; assay type: cell-based, human; conditions: 1 µM, 24 h
Experimental: After treatment with the compounds, cells were trypsinized and washed once in PBS. Cells were fixed for 1 h in ice-cold 70% ethanol, then washed once in PBS, centrifuged at 200 g and resuspended in a PBS buffer containing 100 µg/ml RNase A (Thermo Scientific) and 40 µg/ml propidium iodide (Life Technologies). DNA content was determined using a flow cytometer Attune^TM NxT (Thermofisher) and ten thousand events were collected in each run. The data were analysed using FCS Express 7 Pro software (De Novo).

[1] = design: method as in PMID 22305342; conditions: cited from earlier work

SMILES	% of cycling cells G2/M (U-2 OS cells; DMSO control 6%)	% of cycling cells S (U-2 OS cells; DMSO control 44%)	% of cycling cells G1 (U-2 OS cells; DMSO control 50%)	Stability in basic media [1]
CCCNc1ccc2ncc(-c3ccc4[nH]ncc4c3)n2n1 [CHR-6494, reference compound]	17%	38%	45%	–
O=c1oc2ccc(O)cc2c2c1[nH]c1cc(O)ccc12 [Compound 1b]	–	–	–	instability in basic media
O=c1oc2ccc(O)cc2c2c1[nH]c1ccccc12 [Compound 1a]	–	–	–	instability in basic media
